Data from publication PMC6143438, “Chlorogenic and phenolic acids are only very weak inhibitors of human salivary α-amylase and rat intestinal maltase activities” (Food Research International (Ottawa, Ont.), 2018).

Experiments:
human salivary α-amylase [1] = biological target: T1, human salivary α-amylase (Homo sapiens, UniProt P0DUB6); experiment: enzyme inhibition with amylose substrate, DNS readout after SPE; plateau at […] inhibition at […]; assay type: biochemical
T1 construct: gene AMY1A; human salivary α-amylase type IX-A (Sigma-Aldrich)
T1 sequence (P0DUB6 16-511): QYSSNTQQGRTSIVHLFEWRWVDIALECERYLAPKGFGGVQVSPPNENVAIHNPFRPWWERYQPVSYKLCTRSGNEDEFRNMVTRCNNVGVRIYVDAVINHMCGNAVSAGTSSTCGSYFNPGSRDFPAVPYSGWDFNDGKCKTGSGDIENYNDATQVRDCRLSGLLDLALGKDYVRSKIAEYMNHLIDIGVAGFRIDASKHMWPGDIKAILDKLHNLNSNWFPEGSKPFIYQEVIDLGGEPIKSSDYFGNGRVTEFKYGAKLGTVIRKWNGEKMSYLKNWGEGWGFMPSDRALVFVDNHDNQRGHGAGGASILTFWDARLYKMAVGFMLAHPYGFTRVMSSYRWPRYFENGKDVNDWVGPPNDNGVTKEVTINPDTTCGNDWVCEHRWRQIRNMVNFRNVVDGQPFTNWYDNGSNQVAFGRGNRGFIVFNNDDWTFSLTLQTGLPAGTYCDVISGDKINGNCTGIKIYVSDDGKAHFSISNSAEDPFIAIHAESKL

human salivary α-amylase [2] = biological target: T1, human salivary α-amylase; experiment: enzyme inhibition with amylose substrate, DNS readout after SPE; very weak; assay type: biochemical

inhibition at 600 µM (human salivary α-amylase [1]) | inhibition at 5000 µM (human salivary α-amylase [2]) | Structure (SMILES)
32% | – | COc1ccc(C=CC(=O)O)cc1OC [3,4-dimethoxycinnamic acid]
– | 20.5% | O=C(/C=C/c1ccc(O)c(O)c1)O[C@@H]1C[C@](O)(C(=O)O)C[C@@H](O)[C@H]1O [5-CQA, 5-caffeoylquinic acid]
